Drawing on paper PMC10145393, “Virtual Screening Strategy to Identify Retinoic Acid-Related Orphan Receptor γt Modulators” (Molecules, 2023), this text covers IC50, solubility and logP for 11 compounds.

The target of data set [1] is T1, human RORγ hybrids of both isoforms 1 and 2 (RORγt) (Homo sapiens, UniProt P51449).
T1 sequence (P51449 259-518): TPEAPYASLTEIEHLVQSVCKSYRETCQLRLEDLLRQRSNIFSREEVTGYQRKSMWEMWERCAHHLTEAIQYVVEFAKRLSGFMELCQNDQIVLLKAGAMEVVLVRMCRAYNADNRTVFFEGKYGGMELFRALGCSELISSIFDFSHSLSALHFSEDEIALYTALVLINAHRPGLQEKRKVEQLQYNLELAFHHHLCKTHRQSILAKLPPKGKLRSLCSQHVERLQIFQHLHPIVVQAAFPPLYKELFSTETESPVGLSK
Put plainly: Human RAR-related Orphan Receptor Gamma Reporter Assay System (Indigo Biosciences). In kind it is cell-based. As to the method:
The activity of the 28 selected molecules was determined at 5 μM concentration using the Human RAR-related Orphan Receptor Gamma Reporter Assay System in a 96-well format (Indigo Biosciences, State College, PA, USA). The assay utilizes human reporter cells designed to express high levels of human RORγ hybrids of both isoforms 1 and 2 and is capable of quantifying inverse agonism and agonism. […] Concentrations of the tested molecules varied from 10 µM to 8 nM, using 1/3-fold decrements within the range of 6 µM to 8 nM. Otherwise, the kit protocol was followed, and the analysis was done similarly as in a prior study.
(Reporter assays use an easily measured gene product as a stand-in for the process of interest.)

Data set [2] can be described thus: Solubility observed in experimental testing.
Details of data set [3]: method as in vendor (SPECS). The settings on record: reported by the vendor ref vendor (SPECS); cited from earlier work.
[4] abbreviates: RORγ reporter assay, concentrations 10 µM to 8 nM, read-out: IC50.

Molecules are shown by their SMILES. Read-outs that look alike come from different tables or passages of the source.

For orientation: IC50 means the concentration that gives 50% inhibition. Consider `COc1ccc(Cn2c(-c3ccc(S(=O)(=O)N4CCOCC4)cc3)cs/c2=N\c2ccccc2OC)cc1` [Compound 21], for which the IC50 in data set [1] (setting [4]) is 10700 nM.
For the compound `COc1cc(C2C(C#N)=C(N)N(Nc3ccccc3)C3=C2C(=O)CC(C)(C)C3)ccc1OCc1cccc(F)c1` (stereo not shown) [Compound 25], in data set [1], the IC50 was found to be 2400 nM.
In the case of `COc1ccc(C2CC(=O)C3=C(C2)NC(C)=C(C(=O)OC2CCCCC2)C3c2cccc(O)c2)cc1OC` (stereo not shown) [Compound 14], in data set [1] (setting [4]), the IC50 is 2300 nM.
With `COc1ccc(-c2nc3ccccc3c(C(=O)Nc3ccc(S(=O)(=O)Nc4cc(C)on4)cc3)c2C)cc1` [Compound 19], the IC50 in data set [1] (setting [4]) turned out to be 1100 nM.
By logP is commonly meant the decadic logarithm of the partition coefficient of the neutral form, usually between octanol and water. Consider `COc1cc(C(=O)N2CCN(CCN3C(=O)c4cccc5cccc(c45)C3=O)CC2)cc(OC)c1OC` [Compound 2], for which the solubility entry in data set [2] is “non-soluble”. In addition, in data set [3], the logP is recorded as 1.69.
`COc1cc(C2C(C#N)=C(N)N(Nc3ccccc3)C3=C2C(=O)CC(C)(C)C3)ccc1OCc1ccccc1` (stereo not shown) [Compound 26] returned an IC50 in data set [1] of 3200 nM.
Take `O=C(O)c1ccc(CN2C(=O)/C(=C/c3cn(Cc4ccc([N+](=O)[O-])cc4)c4ccccc34)S/C2=N/c2ccccc2)cc1` [Compound 15]: the IC50 in data set [1] (setting [4]) came to 7300 nM.
For `COc1cc(C2C(C(=O)OC3CCCCC3)=C(C)NC3=C2C(=O)CC(c2ccc(OC)c(OC)c2)C3)ccc1O` (stereo not shown) [Compound 13], the IC50 in data set [1] (setting [4]) turned out to be 2600 nM.
Turning to `O=C(COC(=O)c1ccc(N2C(=O)C3C4c5ccccc5C(c5ccccc54)C3C2=O)cc1)c1cccc([N+](=O)[O-])c1` (stereo not shown) [Compound 17], the solubility result in data set [2] is “non-soluble”. For the same compound, in data set [3], the logP was 2.93.
With `Clc1ccccc1COc1cccc(/C=N/Nc2nc(N3CCOCC3)nc(N3CCOCC3)n2)c1` [Compound 9], in data set [1] (setting [4]), the IC50 came out at 1700 nM.
Turning to `COc1ccc(-c2cc(C(F)(F)F)n3ncc(C(=O)N4CCN(C(c5ccccc5)c5ccccc5)CC4)c3n2)cc1` [Compound 10], the IC50 in data set [1] (setting [4]) is 9700 nM.
